The values below come from patent publication US20150023885A1, “Antiperspirant Spray Devices and Compositions” (The Procter & Gamble Company, priority 2013, published 2015).

The text on this series:
Solubility may be determined by measuring the amount of light transmittance (a light transmittance value) through a simple mixture of the non-volatile silicone fluid and liquid activation enhancer at the same weight/weight concentrations as in a final antiperspirant composition.
Solubility of a liquid activation enhancer in a non-volatile silicone may be determined by measuring the amount of light transmittance (light transmittance value) through a simple mixture of the non-volatile silicone fluid and liquid activation enhancer at the same weight/weight concentrations as in a final antiperspirant composition.
The Spectronic Genesys 10 Vis utilizes a tungsten-halogen light source and has a spectral bandwidth of 5 nm, a wavelength range of 325 to 1100 nm, accuracy of ±1 nm and a repeatability of ±0.5 nm. Readouts include absorbance, transmittance and concentration. The spectrophotometer is set to 640 nm wavelength and the percent transmittance mode/readout. Polystyrene spectrometer cuvettes having a 1 cm optical light path and transmittance between ˜340 nm and ˜900 nm are used. One suitable example of a spectrometer cuvette is available from VWR International LLC under Catalog #97000-584 having a 2.5 to 4.5 ml capacity. The spectrophotometer is calibrated according to the manufacturer's instructions using a reference cuvette and composition comprised of just the non-volatile silicone fluid of interest. For example, if the test composition comprises 50 centistoke dimethicone and 15% w/w of isopropyl myristate, then the spectrometer is calibrated using a cuvette containing just 50 centistoke dimethicone. Sample cuvettes are filled sufficiently with a test composition of a non-volatile silicone fluid and liquid activation enhancer so that the light path of the spectrophotometer passes through the test composition in the cuvette. The sample cuvettes are shaken well just prior to taking a light transmittance reading.

For `CCCCCCCCCCCCCCCCCC(=O)OCCCC` [butyl stearate], the light transmittance value result was “about 100%”.

As for `CCCCCCCCCCCCCC(C)C` [isohexadecane], the light transmittance value entry is on record as “about 100%” and the “solubility in 50 centistoke dimethicone” value is listed as “soluble in 50 centistoke dimethicone across the 2% to 30% w/w concentration range”.

With PPG-14 butyl ether, the “solubility in 50 centistoke dimethicone” value was “insoluble in 50 centistoke dimethicone across the 2% to 30% w/w concentration range”.

As for mineral oil, the light transmittance value entry is recorded as “about 100%”.
